Data from patent US11724999B2, “Inhibitors of RAS-effector protein interactions” (Oxford University Innovation Limited, priority 2018, dated 2023).

What was measured:
[1] = test system: DLD1 cells (ATCC CCL-221); assay: Cell viability assay (CellTiter-Glo), DLD1 cells; format: cell-based; conditions: Homo sapiens, DLD-1 cells, 48 h incubation, second value of the cell, read-out: Cell Viability (μM) DLD-1 (concentration that decreases cell viability by 50%)
Protocol: (§1) Cells (A549 ATCC CCL-185) are cultured in Dulbecco's Modified Eagle's Medium plus 10% foetal calf serum and 2 mM L-glutamine at 37° C., 5% CO2. Cells are plated onto white clear bottom 96-well plates (5000 cells/well in 200 μl media) and left to adhere overnight at 37° C., 5% CO2. Next day, test compound (1 μl at 200× concentration in 100% DMSO) is added to give final test compound concentration 1× in 0.5% DMSO. After 48 h of incubation at 37° C., 5% CO2, 20 μl CellTiter-Glo reagent (Promega G7572) is added into each well. Plates are incubated at room temperature with shaking for 30 min and then luminescence is read using a PheraStar plate reader. The concentration of compounds that decrease cell viability by 50% is calculated from dose response curves generated using Dotmatics data analysis software.
In the DLD1 cell assay, cells (ATCC CCL-221) are cultured in RPMI-1640 medium plus 10% foetal calf serum and 2 mM L-glutamine at 37° C., 5% CO2.

[2] = target: T1, GST-human KRas166 (G12V) GPPNHP (Homo sapiens, UniProt P01116, G12V); assay: KRas small-molecule screening by SPR (BIACORE T200); format: binding; conditions: compound at final concentration of 100 uM; immobilised GST-KRAS166 (G12V) GPPNHP, GST reference channel
T1 construct: made in house; host or cells: E. coli C41(DE3)
Protocol: For SPR assays pGEX-KRAS(G12V) plasmid was transformed into E. coli C41(DE3). Bacterial cells were cultured at 37° C. to an OD600 of 0.6 and induced with IPTG (final 0.1 mM) at 18° C. overnight. The GST fusion proteins were extracted from bacteria pellets after cell disruption in 140 mM NaCl, 2.7 mM KCl, […], 1.8 mM KH2PO4, 1 mM EDTA, 2 mM MgCl2 pH 7.4 and purified by glutathione-sepharose column chromatography (GE Healthcare), eluting with 50 mM Tris-HCl pH8.0, 10 mM reduced glutathione, 1 mM DTT, 2 mM MgC2. The eluted proteins were dialysed against 50 mM Tris-HCl pH8.0, 1 mM DTT, 2 mM MgCl2 and concentrated to 10 mg/ml using a Biomax-30 […]-15 centrifugal filter device (Millipore). Purified KRAS protein was loaded with GPPNHP as described elsewhere (Pacold et al., 2000). Loaded protein was then purified by gel filtration on a HiLoad Superdex-75 HR column (GE Healthcare) in 1×PBS pH7.4, 5 mM MgCl2 and concentrated for storage.
To a previously immobilized CM5 chip (GE Healthcare BR-1005-30) with anti GST antibody via amine coupling method, GST in channel 1 and GST-human KRas166 (G12V) GPPNHP in channel 2 were immobilised. GST was immobilised between 2,000 and 5,000 Response units. KRAS166 (G12V) was immobilized between 10,000 to 15,000 Response Units.
In a 96 well plate, compounds were diluted in […], 5 mM MgCl2 and 5% DMSO Buffer to a final concentration of 100 uM. DCAI was used as positive control. Experiment also included a solvent correction curve for 5% DMSO. Screening and evaluation of the protein immobilization and the compounds screening was done accordingly to the BIACORE T200 control and evaluation software.
Protein immobilisation: 10,000 RU; average fragment 300 Da in size. Rmax=(MWA/MWL)×RL×SM MWA is the molecular weight of the analyte in Da MWL is the molecular weight of the ligand in Da RL is the immobilization level in RU SM is the molar stoichiometry (assume 1:1) Rmax=300/47,500×10,000×1 Rmax=63 RU. Cell Viability Assay protocols

[3] = test system: H358 cells (ATCC CRL-5807); assay: Cell viability assay (CellTiter-Glo), H358 cells; format: cell-based; conditions: Homo sapiens, NCI-H358, 48 h incubation, first value of the cell, read-out: Cell Viability (μM) H358 (concentration that decreases cell viability by 50%)
Protocol: as §1
In the H358 cell assay, cells (ATCC CRL-5807) are cultured in RPM-1640 medium plus 10% foetal calf serum and 2 mM L-glutamine at 37° C., 5% CO2.

Structure (SMILES)	IC50 [1] [µM]	SPR Response Units [2] [Response Units]	IC50 [3] [µM]
CN1CCC(C(=O)NC[C@@H]2COc3ccc(OCc4ccccc4)cc3O2)CC1 [Example 1, 1-methyl-piperidine-4-carboxylic acid ((R)-7-benzyloxy-2,3-dihydro-benzo[1,4]dioxin-2-ylmethyl)-amide]	13	48	61
CN1CCN(Cc2ccc(C(=O)NC[C@@H]3COc4ccc(OCc5ccccc5)cc4O3)o2)CC1 [Example 2, 5-(4-Methyl-piperazin-1-ylmethyl)-furan-2-carboxylic acid ((R)-7-benzyloxy-2,3-dihydro-benzo[1,4]dioxin-2-ylmethyl)-amide]	10	224	43
CN1CCN(Cc2cnc(C(=O)NC[C@@H]3COc4ccc(OCc5ccccc5)cc4O3)o2)CC1 [Example 4, 5-(4-Methyl-piperazin-1-ylmethyl)-oxazole-2-carboxylic acid ((R)-7-benzyloxy-2,3-dihydro-benzo[1,4]dioxin-2-ylmethyl)-amide]	12	66	57
CN1CCN(Cc2cccc(C(=O)NC[C@@H]3COc4ccc(OCc5ccccc5)cc4O3)c2)CC1 [Example 7, N-((R)-7-Benzyloxy-2,3-dihydro-benzo[1,4]dioxin-2-ylmethyl)-3-(4-methyl-piperazin-1-ylmethyl)-benzamide]	10.5		19.2
CN1CCC(C(=O)NC[C@@H]2COc3ccc(OCc4ccc(Cl)cc4)cc3O2)CC1 [Example 18, 1-Methyl-piperidine-4-carboxylic acid [(R)-7-(4-chloro-benzyloxy)-2,3-dihydro-benzo[1,4]dioxin-2-ylmethyl]-amide]	5.4	61	10
CN1CCN(Cc2ccc(C(=O)NC[C@@H]3COc4ccc(OCCc5ccccc5)cc4O3)o2)CC1 [Example 23, 5-(4-Methyl-piperazin-1-ylmethyl)-furan-2-carboxylic acid ((R)-7-phenethyloxy-2,3-dihydro-benzo[1,4]dioxin-2-ylmethyl)-amide]	3.5	86	35
CN1CCC(C(=O)NC[C@@H]2COc3ccc(OCc4cccc(Cl)c4)cc3O2)CC1 [Example 30, 1-Methyl-piperidine-4-carboxylic acid [(R)-7-(3-chloro-benzyloxy)-2,3-dihydro-benzo[1,4]dioxin-2-ylmethyl]-amide]	3.9	64	16.2
c1ccc(COc2ccc3c(c2)O[C@H](CNCC2CCOCC2)CO3)cc1 [Example 33, ((R)-7-Benzyloxy-2,3-dihydro-benzo[1,4]dioxin-2-ylmethyl)-(tetrahydro-pyran-4-ylmethyl)-amine]	18		> 100
O=C1CN(c2ccccn2)C(=O)N1C[C@@H]1COc2ccc(OCc3ccccc3)cc2O1.O=CO [Example 78, 3-((R)-7-Benzyloxy-2,3-dihydro-benzo[1,4]dioxin-2-ylmethyl)-1-pyridin-2-yl-imidazolidine-2,4-dione]		28	
CN1CCC(N(C)C(=O)NC[C@@H]2COc3ccc(OCc4ccccc4)cc3O2)CC1 [Example 81, 3-(7-Benzyloxy-2,3-dihydro-benzo[1,4]dioxin-2-ylmethyl)-1-methyl-1-(1-methyl-piperidin-4-yl)-urea]		75	

More lines, now with the values ahead:

IC50 [1] [µM]	SPR Response Units [2] [Response Units]	IC50 [3] [µM]	Structure (SMILES)
20	12	> 100	O=C(NC[C@@H]1COc2ccc(OCc3ccccc3)cc2O1)c1ncco1 [Example 3, Oxazole-2-carboxylic acid ((R)-7-benzyloxy-2,3-dihydro-benzo[1,4]dioxin-2-ylmethyl)-amide]
12	96	46	COc1ccc(COc2ccc3c(c2)O[C@H](CNC(=O)c2ccc(CN4CCN(C)CC4)o2)CO3)cc1 [Example 22, 5-(4-Methyl-piperazin-1-ylmethyl)-furan-2-carboxylic acid [(R)-7-(4-methoxy-benzyloxy)-2,3-dihydro-benzo[1,4]dioxin-2-ylmethyl]-amide]
2.5	226	49	CN1CCN(Cc2ccc(C(=O)NC[C@@H]3COc4ccc(OCc5ccc(Cl)cc5)cc4O3)o2)CC1 [Example 24, 5-(4-Methyl-piperazin-1-ylmethyl)-furan-2-carboxylic acid [(R)-7-(4-chloro-benzyloxy)-2,3-dihydro-benzo[1,4]dioxin-2-ylmethyl]-amide]
5.6	44	33.2	CN1CCC(C(=O)NC[C@@H]2COc3ccc(OCc4ccc(F)c(F)c4)cc3O2)CC1 [Example 27, 1-Methyl-piperidine-4-carboxylic acid [(R)-7-(3,4-difluoro-benzyloxy)-2,3-dihydro-benzo[1,4]dioxin-2-ylmethyl]-amide]
8.2	39	16.6	Cc1cccc(COc2ccc3c(c2)O[C@H](CNC(=O)C2CCN(C)CC2)CO3)c1 [Example 28, 1-Methyl-piperidine-4-carboxylic acid [(R)-7-(3-methyl-benzyloxy)-2,3-dihydro-benzo[1,4]dioxin-2-ylmethyl]-amide]
6.8	37	12.5	Cc1ccc(COc2ccc3c(c2)O[C@H](CNC(=O)C2CCN(C)CC2)CO3)cc1 [Example 29, 1-Methyl-piperidine-4-carboxylic acid [(R)-7-(4-methyl-benzyloxy)-2,3-dihydro-benzo[1,4]dioxin-2-ylmethyl]-amide]
5		8	CN1CCN(c2cccc(CNC[C@@H]3COc4ccc(OCc5ccccc5)cc4O3)c2)CC1 [Example 53, ((R)-7-Benzyloxy-2,3-dihydro-benzo[1,4]dioxin-2-ylmethyl)-[3-(4-methyl-piperazin-1-yl)-benzyl]-amine]
13.8		14.7	c1ccc(COc2ccc3c(c2)O[C@H](CNCC2CCCNC2)CO3)cc1 (stereo partly drawn) [Example 58, ((R)-7-Benzyloxy-2,3-dihydro-benzo[1,4]dioxin-2-ylmethyl)-piperidin-3-ylmethyl-amine]
	93		CN1CCC(NC(=O)NC[C@@H]2COc3ccc(OCc4ccccc4)cc3O2)CC1 [Example 80, 1-(7-benzyloxy-2,3-dihydro-benzo[1,4]dioxin-2-ylmethyl)-3-(1-methyl-piperidin-4-yl)-urea]
	63		CN1CCN(C(=O)NC[C@@H]2COc3ccc(OCc4ccccc4)cc3O2)CC1 [Example 82, 4-methyl-piperazine-1-carboxylic acid ((R)-7-benzyloxy-2,3-dihydro-benzo[1,4]dioxin-2-ylmethyl)-amide]
	28		NC[C@@H]1COc2ccc(OCc3ccccc3)cc2O1 [Example 86, C—((R)-7-Benzyloxy-2,3-dihydro-benzo[1,4]dioxin-2-yl)-methylamine]
